US5690904A, “Diagnostic radiopharmaceutical compounds (That)” (priority 1995, dated 1997)

Key:
[1] = Biodistribution of 99mTc labelled complexes in rats (Tc brain bioassay, Example 64, Table I); type: in vivo, Female Sprague-Dawley rats; details: rat, i.v. tail vein
Method: Distribution of the ^99m Tc labelled compounds was evaluated in rats. Female Sprague-Dawley rats weighing 140 to 220 g (average 170 g) were anaesthetised with sodium pentobarbital and were injected in a tail vein with 0.05 to 10mCi of the ^99m Tc labelled complex in a volume of 0.2 to 0.5 ml. At least two rats were injected for each time point.
The animals were sacrificed at 5 and 30 minutes post injection and selected organs were removed; the tails were discarded to avoid interference from the injection site. The radioactivity in each organ was measured at a standard geometry with a […] sodium iodide scintillation counter adjusted for the 140 KeV emission of ^99m Tc. The organs were also weighed to one hundredth of a gram and the activity was calculated as a percent of administered dose per gram. The important determinations are the amount of activity in the brain and the brain:blood ratio.

[2] = Electrophoresis of 99mTc complexes (charge); type: physicochemical
From the text: After labelling, and if required, the resultant ^99m Tc chelate complexes can be purified by passing through a C-18 Sep Pak column.

[3] = 0.1M NaH2PO4, pH 6.8, 250 volts, 25 min
[4] = 0.1M NaH2PO4, pH 6.8, 200 volts, 30 min

Structure (SMILES) | Brain % dose ([1]; 5 min post injection) | Brain:blood ([1]; 5 min post injection) | Heart % dose ([1]; 5 min post injection) | Heart:blood ([1]; 5 min post injection) | Brain % dose ([1]; 30 min post injection) | Brain:blood ([1]; 30 min post injection) | Heart % dose ([1]; 30 min post injection) | Heart:blood ([1]; 30 min post injection) | Electrophoresis (charge) [2, 3] | Electrophoresis (charge) ([2]; 0.05M NaH2PO4, pH 4.5, 3000 volts, 30 min) | Electrophoresis (charge) [2, 4] | Brain:blood ([1]; 5 min post injection, 5 min) | Heart:blood ([1]; 5 min post injection, 5 min) | Brain:blood ([1]; 30 min post injection, 30 min) | Heart:blood ([1]; 30 min post injection, 30 min)
C[SH]1C(C)(C)C(=O)[N]2CC[N]3c4ccccc4[S][Tc]231=[O] (stereo not shown) [Example T711] | 2.33 % dose | 4.24 | 0.88 % dose | 3.38 | 0.47 % dose | 1.54 | 0.23 % dose | 1.51 | neutral | – | – | – | – | – | –
C[SH]1c2ccccc2[N]2CC[N]3C(=O)C(C)(C)[S][Tc]321=[O] (stereo not shown) [Example T712, ^99m Tc complex of N[2-(((methyl-2-mercapto)propionyl)amino)ethyl]-2-methylthio aniline] | 1.69 % dose | 1.04 | 0.61 % dose | 1.07 | 1.73 % dose | 1.13 | 0.53 % dose | 0.74 | – | neutral | – | – | – | – | –
CCC[SH]1C(C)(C)C(=O)[N]2CC[N]3c4ccccc4[S][Tc]231=[O] (stereo not shown) [Example T713, ^99m Tc complex of N[2-(((2-methyl-2-propylthio)propionyl)amino)ethyl]-2-amino-thiophenol] | 1.55 % dose | 4.34 | 0.59 % dose | 3.68 | 0.46 % dose | 1.83 | 0.19 % dose | 1.84 | neutral | – | – | – | – | – | –
CCCC[SH]1C(C)(C)C(=O)[N]2CC[N]3c4ccccc4[S][Tc]231=[O] (stereo not shown) [Example T714, ^99m Tc complex of N[2-(((2-methyl-2-butylthio)propionyl)amino)ethyl]-2-amino-thiophenol] | 1.43 % dose | 3.11 | 0.82 % dose | 3.67 | 0.50 % dose | 1.66 | 0.27 % dose | 1.79 | – | – | – | – | – | – | –
CC[SH]1C(C)(C)C(=O)[N]2CC[N]3c4ccccc4[S][Tc]231=[O] (stereo not shown) [Example T715, ^99m Tc complex of N[2-(((2-methyl-2-ethylthio)propionyl)amino)ethyl]-2-amino-thioplhenol] | 2.55 % dose | 5.19 | 0.84 % dose | 3.73 | 0.51 % dose | 1.36 | 0.23 % dose | 1.40 | – | – | – | – | – | – | –
CCC[SH]1c2ccccc2[N]2CC[N]3C(=O)C(C)(C)[S][Tc]321=[O] (stereo not shown) [Example T717, ^99m Tc N[2-(((2-methyl-2-mercapto)propionyl)amino)ethyl]-2-propylthioaniline] | 1.27 % dose | 1.21 | 0.98 % dose | 1.88 | 1.24 % dose | 1.23 | 0.48 % dose | 1.00 | – | – | neutral | – | – | – | –
C=CC[SH]1C(C)(C)C(=O)[N]2CC[N]3c4ccccc4[S][Tc]231=[O] (stereo not shown) [Example T719, ^99m Tc complex of N[2-(((2-methyl-2-allylthio)propionyl)amino)ethyl]-2-(4-methoxybenzylthio)aniline] | 1.86 % dose | – | 0.78 % dose | – | 0.48 % dose | – | 0.40 % dose | – | – | – | – | 1.32 | 1.36 | 0.26 | 0.55
C=CC[SH]1C(C)(C)C(=O)[N]2CC[N]3c4ccccc4[S][Tc]231=[O] (stereo not shown) [Example T721, ^99m Tc complex of N[2-(((-methyl-2-allylthio)propionyl)amino)ethyl]-2-aminothiopenol] | 1.82 % dose | – | 0.75 % dose | – | 0.30 % dose | – | 0.36 % dose | – | – | – | neutral | 1.23 | 1.16 | 0.21 | 0.49
C#CC[SH]1C(C)(C)C(=O)[N]2CC[N]3c4ccccc4[S][Tc]231=[O] (stereo not shown) [Example T722, ^99m Tc complex of N[2-(((2-methyl-2-(2-propynylthio))propionyl)amino)ethyl]-2-(4-methoxybenzylthio)aniline] | 1.58 % dose | 0.57 | 0.74 % dose | 0.67 | 0.68 % dose | 0.31 | 0.48 % dose | 0.52 | – | – | – | – | – | – | –
CC1(C)C(=O)[N]2CC[N]3c4ccccc4[S][Tc]23(=[O])[SH]1CCO (stereo not shown) [Example T726, ^99m Tc complex of N[2-(((2-methyl-2-(2-hydroxyethylthio))propionyl)amino)ethyl]-2-(4-methoxybenzylthio) aniline] | 1.11 % dose | 1.82 | 0.73 % dose | 3.22 | 0.32 % dose | 0.93 | 0.28 % dose | 2.08 | – | – | neutral | – | – | – | –
CC1(C)C(=O)[N]2CC[N]3c4ccccc4[S][Tc]23(=[O])[SH]1CCCN (stereo not shown) [Example T728, ^99m Tc complex of N[2-(((2-methyl-2-(3-aminopropylthio))propionyl)amino)ethyl]-2-(4-methoxybenzylthio) aniline] | 0.03 % dose | 0.04 | 1.68 % dose | 4.36 | 0.03 % dose | 0.05 | 0.74 % dose | 2.11 | – | – | – | – | – | – | –
